# Test results: patent US20130274254A1, “INHIBITORS OF CYTOCHROME P450 (CYP3A4)” (Gilead Sciences, Inc., priority 2010, published 2013)
# pIC50: −log10 of the molar value.
# Columns and labels:
# [1] = molecular target: T1, CYP3A4 (Homo sapiens, UniProt P08684); experiment: CYP3A inhibition assay, testosterone 6β-hydroxylase activity in pooled human hepatic microsomal fraction
# Method: (§1) Pooled (n≧15 donors) human hepatic microsomal fraction was obtained from BD-Gentest (Woburn, Mass.) who also supplied hydroxy-terfenadine, 4′-hydroxydiclofenac and NADPH regenerating system. Ritonavir was prepared from commercial Norvir® oral solution (Abbott Laboratories, Abbott Park, Ill.). Other reagents were from Sigma-Aldrich (St. Louis, Mo.) and included terfenadine, fexofenadine, BRL 15572, diclofenac and mefenamic acid.
# Incubations were performed in duplicate in 50 mM potassium phosphate buffer, pH 7.4 with NADPH regenerating system used as described by the manufacturer. […] The final substrate concentrations used were equal to the apparent Km values for the activities determined under the same conditions. Inhibitors were dissolved in DMSO, and the final concentration of DMSO, from both substrate and inhibitor vehicles, was 1% (v/v). Incubations were performed at 37° C. with shaking and were initiated by addition of substrate. Aliquots were then removed at 0, 7 and 15 minutes. Samples were quenched by treatment with an acetonitrile, formic acid, water (94.8%/0.2%/5%, v/v/v) mixture containing internal standard. Precipitated protein was removed by centrifugation at 3000 rpm for 10 min and aliquots of the supernatant were then subjected to LC-MS analysis.
# The LC-MS system consisted of a Waters Acquity UPLC, with a binary solvent manager and a refrigerated (8° C.) sample organizer and sample manager, interfaced to a Micromass Quattro Premier tandem mass spectrometer operating in electrospray ionization mode. The column was a Waters Acquity UPLC BEH C18 2.1×50 mm, 1.7 μm pore size. Mobile phases consisted of mixtures of acetonitrile, formic acid and water, the composition for mobile phase A being 1%/0.2%/98.8% (v/v/v) and that for mobile phase B being 94.8%/0.2%/5% (v/v/v). The injection volumes were 5 μL and the flow rate was 0.8 mL/min. Concentrations of metabolites were determined by reference to standard curves generated with authentic analytes under the same conditions as the incubations.
# (§2) IC50 values (the concentration of inhibitor reducing CYP3A activity by 50%) were calculated by non-linear regression using GraphPad Prism 4.0 software and a sigmoidal model.
# (§3) For midazolam hydroxylase determination the final concentrations of microsomal protein and terfenadine substrate were 0.25 mg/mL and 2.5 μM, respectively, and the LC-MS internal standard was 1α-hydroxytriazolam. For testosterone hydroxylase activity the final microsomal protein concentration was 0.5 mg/mL, the substrate concentration was 50 μM and the LC-MS internal standard was D7-labeled 6β-hydroxytestosterone. After incubation at 37° C. for 5 minutes, metabolic reactions were terminated by treatment with quench solution containing the appropriate internal standard and were subsequently centrifuged before aliquots of the supernatant were removed and diluted with 0.1% (v/v) formic acid for LC-MS analysis.
# (§4) For LC-MS analysis the column was a Phenomenex Synergi Max RP 4 μm column (50×2.0 mm) and the injection volume was 5 μL. The MS/MS ion current metabolite/internal standard peak area ratios (PAR) were measured on an Applied Biosystems SciEx API4000 triple quadrupole mass spectrometer coupled to a Leap CTC PAL autosampler with a 20 μL loop and a Shimadzu LC pump with a 25 μL mixer. The initial mobile phase consisted of 94.9% water, 0.1% formic acid, and 5% acetonitrile (v/v/v) pumped at 0.5 mL/min. After 0.5 min the acetonitrile concentration was increased to 30% over 0.5 min. The acetonitrile concentration was then further increased to 100% over 0.5 min and held for 1.3 min, after which the column was re equilibrated at the initial conditions for 1.2 min. Rates of metabolite formation were determined from standard curves using PAR determined with authentic metabolite standards.
# [2] = molecular target: T1, CYP3A4; experiment: CYP3A inhibition assay, midazolam 1'-hydroxylase activity in pooled human hepatic microsomal fraction; assay type: biochemical; settings: pooled human liver microsomes, pH 7.4, probe midazolam (1'-hydroxylation), 0.25 mg/mL microsomal protein
# Method: as §1, with “acid. […]” for “acid.”
# as §2
# as §3, with “For midazolam hydroxylase determination the final concentrations of microsomal protein and terfenadine substrate were 0.25 mg/mL and 2.5 μM, respectively, and the LC-MS internal standard was 1α-hydroxytriazolam.” left out
# as §4
# T1 sequence (P08684 2-503): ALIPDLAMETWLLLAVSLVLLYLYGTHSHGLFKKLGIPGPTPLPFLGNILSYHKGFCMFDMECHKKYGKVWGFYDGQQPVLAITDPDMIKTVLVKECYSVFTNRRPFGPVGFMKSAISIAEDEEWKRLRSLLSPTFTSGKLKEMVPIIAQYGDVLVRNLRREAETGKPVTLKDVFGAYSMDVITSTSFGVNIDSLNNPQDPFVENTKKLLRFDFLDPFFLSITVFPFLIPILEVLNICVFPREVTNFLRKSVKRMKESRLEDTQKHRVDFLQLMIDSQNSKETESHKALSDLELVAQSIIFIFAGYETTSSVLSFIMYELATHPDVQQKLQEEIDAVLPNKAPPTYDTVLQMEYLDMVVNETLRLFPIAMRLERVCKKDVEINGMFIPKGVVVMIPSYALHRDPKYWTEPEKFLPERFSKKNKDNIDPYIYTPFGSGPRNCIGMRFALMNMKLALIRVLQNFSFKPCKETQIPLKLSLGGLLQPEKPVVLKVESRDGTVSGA
pIC50 [1],IC50 at 5 min [2] [µM],SMILES
6.60,0.11,CC(C)[C@H](NC(=O)N1CCOCC1)C(=O)N[C@H](CC[C@H](Cc1ccccc1)NC(=O)OCc1cncs1)Cc1ccccc1 [Compound 27]
6.40,< 0.1,CC(=O)NCC[C@H](NC(=O)N1CCCCC1)C(=O)N[C@@H](CC[C@@H](Cc1ccccc1)NC(=O)OCc1cncs1)Cc1ccccc1 [Compound 41]
6.35,0.16,CC(C)c1nc(CN(C)C(=O)N[C@H](C(=O)N[C@H](CC[C@H](Cc2ccccc2)NC(=O)OCc2cccnc2)Cc2ccccc2)C(C)C)cs1 [Compound 73]
6.49,0.13,CC(C)CN(C)C(=O)N[C@@H](CCN1CCOCC1)C(=O)N[C@H](CC[C@H](Cc1ccccc1)NC(=O)OCc1cncs1)Cc1ccccc1 [Compound 14]
6.55,0.18,CN(C(=O)N[C@@H](CCN1CCOCC1)C(=O)N[C@H](CC[C@H](Cc1ccccc1)NC(=O)OCc1cncs1)Cc1ccccc1)C1CCCCC1 [Compound 19]
6.35,0.19,Cc1ncsc1CCC(=O)N[C@H](CC[C@H](Cc1ccccc1)NC(=O)[C@@H](NC(=O)N(C)Cc1csc(C(C)C)n1)C(C)C)Cc1ccccc1 [Compound 90]
6.25,0.26,COCCN(C)C(=O)N[C@@H](CCN1CCOCC1)C(=O)N[C@H](CC[C@H](Cc1ccccc1)NC(=O)OCc1cncs1)Cc1ccccc1 [Compound 21]
6.28,0.19,CN(Cc1ccccn1)C(=O)N[C@@H](CCN1CCOCC1)C(=O)N[C@H](CC[C@H](Cc1ccccc1)NC(=O)OCc1cncs1)Cc1ccccc1 [Compound 61]
6.38,0.13,CN(C(=O)N[C@@H](CCN1CCOCC1)C(=O)N[C@H](CC[C@H](Cc1ccccc1)NC(=O)OCc1cncs1)Cc1ccccc1)C(C)(C)C [Compound 11]
6.33,0.19,CC(C)[C@H](NC(=O)N1CCN(C)CC1)C(=O)N[C@H](CC[C@H](Cc1ccccc1)NC(=O)OCc1cncs1)Cc1ccccc1 [Compound 28]
6.49,0.22,O=C(N[C@H](CC[C@H](Cc1ccccc1)NC(=O)[C@H](CCN1CCOCC1)NC(=O)N1CCCC1)Cc1ccccc1)OCc1cncs1 [Compound 10]
6.35,< 0.1,CN(Cc1cccnc1)C(=O)N[C@@H](CCN1CCOCC1)C(=O)N[C@H](CC[C@H](Cc1ccccc1)NC(=O)OCc1cncs1)Cc1ccccc1 [Compound 59]
6.15,0.15,CN(C)C(=O)N[C@@H](CCN1CCOCC1)C(=O)N[C@H](CC[C@H](Cc1ccccc1)NC(=O)OCc1cncs1)Cc1ccccc1 [Compound 16]
6.68,0.18,O=C(N[C@H](CC[C@H](Cc1ccccc1)NC(=O)[C@@H]1C[C@@H](O)CN1C(=O)OCc1ccccc1)Cc1ccccc1)OCc1cncs1 [Compound 67]
5.82,0.72,CC(C)c1nc(CN(C)C(=O)N[C@H](C(=O)N[C@H](CC[C@H](Cc2ccccc2)NC(=O)OC(C)(C)C)Cc2ccccc2)C(C)C)cs1 [Compound 70]
5.96,0.41,CN1CCN(C(=O)N[C@@H](CCN2CCOCC2)C(=O)N[C@H](CC[C@H](Cc2ccccc2)NC(=O)OCc2cncs2)Cc2ccccc2)CC1 [Compound 15]
6.62,< 0.1,CC(=O)NCC[C@H](NC(=O)N(C)C(C)C)C(=O)N[C@@H](CC[C@@H](Cc1ccccc1)NC(=O)OCc1cncs1)Cc1ccccc1 [Compound 36]
6.59,< 0.1,CC(C)N(C)C(=O)N[C@H](CCN1CCOCC1)C(=O)N[C@H](CC[C@H](Cc1ccccc1)NC(=O)OCc1cncs1)Cc1ccccc1 [Compound 53]
5.64,0.7,CC(C)c1nc(CN(C)C(=O)N[C@H](C(=O)N[C@H](CC[C@H](Cc2ccccc2)NC(=O)CCc2cccs2)Cc2ccccc2)C(C)C)cs1 [Compound 89]
6.39,< 0.1,CC(C)(C)OC(=O)N[C@@H](CCN1CCOCC1)C(=O)N[C@H](CC[C@H](Cc1ccccc1)NC(=O)OCc1cncs1)Cc1ccccc1 [Compound 54]
6.66,0.1,CC(=O)NCC[C@H](NC(=O)N1CCCCC1)C(=O)N[C@H](CC[C@H](Cc1ccccc1)NC(=O)OCc1cncs1)Cc1ccccc1 [Compound 40]
6.54,0.13,CN(Cc1ccco1)C(=O)N[C@@H](CCN1CCOCC1)C(=O)N[C@H](CC[C@H](Cc1ccccc1)NC(=O)OCc1cncs1)Cc1ccccc1 [Compound 60]
6.82,0.15,CC(=O)NCC[C@H](NC(=O)N(C)C(C)C)C(=O)N[C@H](CC[C@H](Cc1ccccc1)NC(=O)OCc1cncs1)Cc1ccccc1 [Compound 35]
6.44,0.11,CN(Cc1ccc(F)cc1)C(=O)N[C@@H](CCN1CCOCC1)C(=O)N[C@H](CC[C@H](Cc1ccccc1)NC(=O)OCc1cncs1)Cc1ccccc1 [Compound 20]
6.49,< 0.1,CC(C)[C@H](NC(=O)N(C)C(C)C)C(=O)N[C@H](CC[C@H](Cc1ccccc1)NC(=O)OCc1cncs1)Cc1ccccc1 [Compound 29]
6.19,0.2,O=C(N[C@H](CC[C@H](Cc1ccccc1)NC(=O)[C@H](CCN1CCOCC1)NC(=O)N1CCOCC1)Cc1ccccc1)OCc1cncs1 [Compound 12]
6.51,0.14,CC(C)N(C)C(=O)N[C@@H](CCN1CCOCC1)C(=O)N[C@H](CC[C@H](Cc1ccccc1)NC(=O)OCc1cncs1)Cc1ccccc1 [Compound 7]
6.46,0.18,O=C(NC1CCCCC1)N[C@@H](CCN1CCOCC1)C(=O)N[C@H](CC[C@H](Cc1ccccc1)NC(=O)OCc1cncs1)Cc1ccccc1 [Compound 18]
6.52,0.13,CN(Cc1ccccc1)C(=O)N[C@@H](CCN1CCOCC1)C(=O)N[C@H](CC[C@H](Cc1ccccc1)NC(=O)OCc1cncs1)Cc1ccccc1 [Compound 17]
